# Patent US11109593B2, “Isoxazolin-5-one derivative and herbicide containing same as active ingredient” (HOKKO CHEMICAL INDUSTRY CO., LTD., priority 2017, dated 2021)
# Tests used:
# [1] = system: broad leaf weeds (Lindernia pyxidaria and Monochoria vaginalis); test: Test Example 2: herbicidal effect test by treatment during growing period in paddy rice cultivation (seven days after seeding); format: in vivo; details: for pest or weed control at 1200 g/ha: 336 h; for pest or weed control at 1200 g/ha / Herbicidal rate (%) Lindernia pyxidaria / Herbicidal rate (%) Monochoria vaginalis: 120 g/10a active ingredient, assessed 14 days after treatment, dry weight vs untreated area
# How it was run: (§1)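 Herbicidal rate = (1 − treated/untreated mean dry weight) × 100, scored 14 days after application, two replicates per rate. Treatment: diluted emulsion dropped onto paddy water seven days after sowing, 120 g active ingredient per 10 ares, in a glass greenhouse.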
# Echinochloa crus-galli [2] = test: as above; format: in vivo; details: for pest or weed control at 1200 g/ha: Echinochloa crus-galli, 336 h, read-out: herbicidal rate (%) Echinochloa crus-galli; for pest or weed control at 1200 g/ha / Herbicidal rate (%) Echinochloa crus-galli: 120 g/10a active ingredient, assessed 14 days after treatment, dry weight vs untreated area
# How it was run: as §1
# Scirpus juncoides [3] = test: as above; format: in vivo; details: for pest or weed control at 1200 g/ha: Schoenoplectiella juncoides, 336 h, read-out: herbicidal rate (%) Scirpus juncoides; for pest or weed control at 1200 g/ha / Herbicidal rate (%) Scirpus juncoides: 120 g/10a active ingredient, assessed 14 days after treatment, dry weight vs untreated area
# How it was run: as §1
# Chenopodium album [4] = test: Test Example 3: herbicidal effect test by treatment of dry field farming soil (one day after seeding); format: in vivo; details: 120 g/10a active ingredient, evaluated 14 days after treatment; for pest or weed control at 1200 g/ha: Chenopodium album, 336 h, read-out: herbicidal rate, Chenopodium album
# How it was run: (§2)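 Seeds (20 each) mixed into top 1 cm of alluvium in pots, surface pressed. One day later, diluted emulsion sprayed onto soil, 100 L/10 a, 120 g a.i./10 a. Dry weight at 14 d vs untreated gave % herbicidal rate; n=2.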
# southern crabgrass [5] = test: as above; format: in vivo; details: 120 g/10a active ingredient, evaluated 14 days after treatment; for pest or weed control at 1200 g/ha: Digitaria ciliaris, 336 h, read-out: herbicidal rate, southern crabgrass
# How it was run: as §2
# Echinochloa crus-galli [6] = test: as above; format: in vivo; details: 120 g/10a active ingredient, evaluated 14 days after treatment; for pest or weed control at 1200 g/ha: Echinochloa crus-galli, 336 h, read-out: herbicidal rate, Echinochloa crus-galli
# How it was run: as §2
# Amaranthus viridis [7] = test: as above; format: in vivo; details: 120 g/10a active ingredient, evaluated 14 days after treatment; for pest or weed control at 1200 g/ha: Amaranthus viridis, 336 h, read-out: herbicidal rate, Amaranthus viridis
# How it was run: as §2
# [8] = system: broad leaf weeds (Lindernia pyxidaria and Monochoria vaginalis); test: Test Example 1: herbicidal effect test by treatment of rice paddy soil (immediately after seeding); format: in vivo
# How it was run: (§3)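 Application occurs immediately after seeding, with diluted emulsion added to paddy water (about 3 cm deep) over puddled, fertilized soil at 120 g active ingredient per 10 ares. Herbicidal rate is calculated from mean dry weight against untreated controls 14 days later.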
# Echinochloa crus-galli [9] = test: as above; format: in vivo
# How it was run: as §3
# Scirpus juncoides [10] = test: as above; format: in vivo
# How it was run: as §3
# Chenopodium album [11] = test: Test Example 4: herbicidal effect test by treatment of leave and stem in dry field farming (seven days after seeding); format: in vivo; details: 120 g/10a active ingredient, emulsion sprayed seven days after seeding, evaluated 14 days after treatment; for pest or weed control at 1200 g/ha: Chenopodium album, 336 h, read-out: herbicidal effect (herbicidal rate), Chenopodium album
# How it was run: (§4)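 Twenty seeds per species were mixed into the top 1 cm of alluvial soil in 36 cm^2 pots; emulsions were sprayed seven days after seeding at 100 L per 10 ares (120 g active ingredient per 10 ares). Herbicidal rate (%) = {1 − treated/untreated mean dry weight} × 100, 14 days after treatment, duplicate.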
# southern crabgrass [12] = test: as above; format: in vivo; details: 120 g/10a active ingredient, emulsion sprayed seven days after seeding, evaluated 14 days after treatment; for pest or weed control at 1200 g/ha: Digitaria ciliaris, 336 h, read-out: herbicidal effect (herbicidal rate), southern crabgrass
# How it was run: as §4
# Echinochloa crus-galli [13] = test: as above; format: in vivo; details: 120 g/10a active ingredient, emulsion sprayed seven days after seeding, evaluated 14 days after treatment; for pest or weed control at 1200 g/ha: Echinochloa crus-galli, 336 h, read-out: herbicidal effect (herbicidal rate), Echinochloa crus-galli
# How it was run: as §4
# Amaranthus viridis [14] = test: as above; format: in vivo; details: 120 g/10a active ingredient, emulsion sprayed seven days after seeding, evaluated 14 days after treatment; for pest or weed control at 1200 g/ha: Amaranthus viridis, 336 h, read-out: herbicidal effect (herbicidal rate), Amaranthus viridis
# How it was run: as §4
# [15] = Lindernia pyxidaria, read-out: herbicidal rate (%) Lindernia pyxidaria
# [16] = Monochoria vaginalis, read-out: herbicidal rate (%) Monochoria vaginalis
# [17] = 336 h, Monochoria vaginalis, 120 g/10a active ingredient, dry weight vs untreated area, 14 days after treatment, read-out: Herbicidal rate (%) Monochoria vaginalis
# [18] = in Lindernia, 336 h, Lindernia pyxidaria, 120 g/10a active ingredient, dry weight vs untreated area, 14 days after treatment, read-out: Herbicidal rate (%) Lindernia pyxidaria
# [19] = in Echinochloa crus-galli, 336 h, 120 g/10a active ingredient, dry weight vs untreated area, 14 days after treatment, read-out: Herbicidal rate (%) Echinochloa crus-galli
# [20] = in Schoenoplectiella juncoides, 336 h, 120 g/10a active ingredient, dry weight vs untreated area, 14 days after treatment, read-out: Herbicidal rate (%) Scirpus juncoides
# [21] = 120 g/10a active ingredient, dry weight vs untreated area, 14 days after treatment
# [22] = Lindernia pyxidaria, 120 g/10a active ingredient, 14 days after treatment, dry weight vs untreated area
# [23] = Monochoria vaginalis, 120 g/10a active ingredient, 14 days after treatment, dry weight vs untreated area
# [24] = 120 g/10a active ingredient, 14 days after treatment, dry weight vs untreated area
# [25] = 120 g/10a, rated 14 days after treatment, paddy soil pots
Compound,"pest or weed control at 1200 g/ha [1, 15] [%]","pest or weed control at 1200 g/ha [1, 16] [%]",pest or weed control at 1200 g/ha (Echinochloa crus-galli [2]) [%],pest or weed control at 1200 g/ha (Scirpus juncoides [3]) [%],pest or weed control at 1200 g/ha (Chenopodium album [4]) [%],pest or weed control at 1200 g/ha (southern crabgrass [5]) [%],pest or weed control at 1200 g/ha (Echinochloa crus-galli [6]) [%],pest or weed control at 1200 g/ha (Amaranthus viridis [7]) [%],"pest or weed control at 1200 g/ha [8, 17] [%]","pest or weed control at 1200 g/ha [8, 18] [%]",pest or weed control at 1200 g/ha (Echinochloa crus-galli [9]; [19]) [%],pest or weed control at 1200 g/ha (Scirpus juncoides [10]; [20]) [%],melting point [°C],pest or weed control at 1200 g/ha (Chenopodium album [11]) [%],pest or weed control at 1200 g/ha (southern crabgrass [12]) [%],pest or weed control at 1200 g/ha (Echinochloa crus-galli [13]) [%],pest or weed control at 1200 g/ha (Amaranthus viridis [14]) [%],"herbicidal rate, Chenopodium album (Chenopodium album [4]) [%]","herbicidal rate, southern crabgrass (southern crabgrass [5]) [%]","herbicidal rate, Echinochloa crus-galli (Echinochloa crus-galli [6]) [%]",also measured
"COCC(C)n1oc(=O)c(Cc2ccccc2NS(=O)(=O)C(F)(F)F)c1C (centres unmarked) [Compound 1-149, 1,1,1-trifluoro-N-[2-[[2-(2-methoxy-1-methyl-ethyl)-3-methyl-5-oxo-isoxazol-4-yl]methyl]phenyl]methanesulfonamide]",90,90,100,90,40,90,90,40,90,90,90,90,107 to 109,40,90,90,40,,,,
"CCC(C)n1oc(=O)c(Cc2ccccc2N(C(=O)OC)S(=O)(=O)C(F)(F)F)c1C (centres unmarked) [Compound 1-577, methyl N-[2-[(3-methyl-5-oxo-2-sec-butyl-isoxazol-4-yl)methyl]phenyl]-N-(trifluoromethylsulfonyl)carbamate]",90,90,90,90,90,90,90,90,90,90,90,90,75 to 80,40,90,90,40,,,,
"Cc1c(Cc2ccccc2N(S(=O)(=O)C(F)(F)F)S(=O)(=O)C(F)(F)F)c(=O)on1CC(C)C [Compound 1-967, 1,1,1-trifluoro-N-[2-[(2-isobutyl-3-methyl-5-oxoisoxazol-4-yl)methyl]phenyl]-N-(trifluoromethylsulfonyl)methanesulfonamide]",100,90,90,80,40,90,50,80,100,90,90,90,120 to 122,40,0,60,40,,,,
"COCC(C)n1oc(=O)c(Cc2ccccc2N(S(=O)(=O)C(F)(F)F)S(=O)(=O)C(F)(F)F)c1C (centres unmarked) [Compound 1-997, 1,1,1-trifluoro-N-[2-[[2-(2-methoxy-1-methyl-ethyl)-3-methyl-5-oxo-isoxazol-4-yl]methyl]phenyl]-N-(trifluoromethylsulfonyl)methanesulfonamide]",70,90,90,90,50,90,90,50,80,90,90,90,116 to 118,0,40,70,40,,,,
Cc1c(Cc2ccccc2N(S(=O)(=O)C(F)(F)F)S(=O)(=O)C(F)(F)F)c(=O)on1C(C)Cc1ccccc1 (centres unmarked) [Compound 1-1045],,,,,,,,,,,,,,,,,,40,50,90,"Herbicidal rate (%) Lindernia pyxidaria ([1]; Lindernia pyxidaria): 60%; Herbicidal rate (%) Monochoria vaginalis ([1]; Monochoria vaginalis): 90%; Herbicidal rate (%) Echinochloa crus-galli (Echinochloa crus-galli [2]): 90%; Herbicidal rate (%) Scirpus juncoides (Scirpus juncoides [3]): 90%; herbicidal rate, Amaranthus viridis (Amaranthus viridis [7]): 40%; Herbicidal rate (%) Lindernia pyxidaria ([8]; Lindernia pyxidaria, 120 g/10a active ingredient, dry weight vs untreated area, 14 days after treatment): 90%; Herbicidal rate (%) Monochoria vaginalis ([8]; Monochoria vaginalis, 120 g/10a active ingredient, dry weight vs untreated area, 14 days after treatment): 80%; Herbicidal rate (%) Echinochloa crus-galli (Echinochloa crus-galli [9]; [21]): 100%; Herbicidal rate (%) Scirpus juncoides (Scirpus juncoides [10]; [21]): 90%; herbicidal effect (herbicidal rate), Chenopodium album (Chenopodium album [11]): 0%; herbicidal effect (herbicidal rate), southern crabgrass (southern crabgrass [12]): 40%; herbicidal effect (herbicidal rate), Echinochloa crus-galli (Echinochloa crus-galli [13]): 90%; herbicidal effect (herbicidal rate), Amaranthus viridis (Amaranthus viridis [14]): 60%"
Cc1c(Cc2ccccc2N(S(=O)(=O)C(F)(F)F)S(=O)(=O)C(F)(F)F)c(=O)on1C1CCCc2ccccc21 (centres unmarked) [Compound 1-1050],,,,,,,,,,,,,,,,,,90,90,100,"Herbicidal rate (%) Lindernia pyxidaria ([1]; Lindernia pyxidaria): 100%; Herbicidal rate (%) Monochoria vaginalis ([1]; Monochoria vaginalis): 90%; Herbicidal rate (%) Echinochloa crus-galli (Echinochloa crus-galli [2]): 90%; Herbicidal rate (%) Scirpus juncoides (Scirpus juncoides [3]): 90%; herbicidal rate, Amaranthus viridis (Amaranthus viridis [7]): 90%; Herbicidal rate (%) Lindernia pyxidaria [8, 22]: 100%; Herbicidal rate (%) Monochoria vaginalis [8, 23]: 100%; Herbicidal rate (%) Echinochloa crus-galli (Echinochloa crus-galli [9]; [24]): 100%; Herbicidal rate (%) Scirpus juncoides (Scirpus juncoides [10]; [24]): 90%; herbicidal effect (herbicidal rate), Chenopodium album (Chenopodium album [11]): 50%; herbicidal effect (herbicidal rate), southern crabgrass (southern crabgrass [12]): 40%; herbicidal effect (herbicidal rate), Echinochloa crus-galli (Echinochloa crus-galli [13]): 50%; herbicidal effect (herbicidal rate), Amaranthus viridis (Amaranthus viridis [14]): 40%"
Cc1ccc(S(=O)(=O)N(c2ccccc2Cc2c(C)n(C(C)C)oc2=O)S(=O)(=O)C(F)(F)F)cc1 [Compound 1-1127],,,,,,,,,,,,,,,,,,60,70,90,"herbicidal rate, Lindernia pyxidaria ([1]; Lindernia pyxidaria, 120 g/10a, rated 14 days after treatment, paddy soil pots): 100%; herbicidal rate, Monochoria vaginalis ([1]; Monochoria vaginalis, 120 g/10a, rated 14 days after treatment, paddy soil pots): 100%; herbicidal rate, Echinochloa crus-galli (Echinochloa crus-galli [2]; [25]): 100%; herbicidal rate, Scirpus juncoides (Scirpus juncoides [3]; [25]): 90%; herbicidal rate, Amaranthus viridis (Amaranthus viridis [7]): 40%; Herbicidal rate (%) Lindernia pyxidaria [8, 22]: 100%; Herbicidal rate (%) Monochoria vaginalis [8, 23]: 100%; Herbicidal rate (%) Echinochloa crus-galli (Echinochloa crus-galli [9]; [24]): 100%; Herbicidal rate (%) Scirpus juncoides (Scirpus juncoides [10]; [24]): 90%; herbicidal effect (herbicidal rate), Chenopodium album (Chenopodium album [11]): 40%; herbicidal effect (herbicidal rate), southern crabgrass (southern crabgrass [12]): 40%; herbicidal effect (herbicidal rate), Echinochloa crus-galli (Echinochloa crus-galli [13]): 90%; herbicidal effect (herbicidal rate), Amaranthus viridis (Amaranthus viridis [14]): 40%"
